From publication PMC7069095, “A cell-permeable peptide-based PROTAC against the oncoprotein CREPT proficiently inhibits pancreatic cancer” (Theranostics, 2020) come the findings set out here.

Data set [1] has as its target T1, endogenous CREPT protein in MIA PaCa-2 cells (Homo sapiens, UniProt Q9NQG5).
T1 construct: endogenous protein level of CREPT in Panc-1, AsPc-1 and MIA-PaCa-2 cells; endogenous in cells; host or cells: Panc-1, AsPc-1, MIA PaCa-2
T1 sequence (Q9NQG5 1-326): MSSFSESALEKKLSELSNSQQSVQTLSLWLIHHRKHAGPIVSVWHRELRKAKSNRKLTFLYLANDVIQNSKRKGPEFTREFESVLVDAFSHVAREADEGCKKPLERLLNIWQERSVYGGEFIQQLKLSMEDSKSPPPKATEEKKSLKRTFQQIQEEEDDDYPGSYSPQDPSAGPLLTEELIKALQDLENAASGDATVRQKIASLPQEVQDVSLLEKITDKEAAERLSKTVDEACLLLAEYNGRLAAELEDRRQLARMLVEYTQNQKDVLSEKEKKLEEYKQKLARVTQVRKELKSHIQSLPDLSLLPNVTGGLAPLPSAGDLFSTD
Kind of data set: Western blot of endogenous CREPT (degradation). It is filed as cell-based. The note with it: 24 h incubation. The procedure:
(§1) For exogenous immunoprecipitation assays, HEK293T cells were plated in 60 mm dishes and then transfected with the indicated plasmids. After 24 h, cells were harvested using RIPA buffer (50 mM Tris-HCl pH 8.0, 2 mM EDTA pH 8.0, 150 mM NaCl, 1% NP-40, 0.5% sodium deoxycholate, 0.1% SDS) with mixed protease inhibitors. Cell lysates were incubated with 2 μg of the indicated antibodies and 30 μL of protein A/G-Sepharose beads at 4 °C overnight. Beads were eluted five times with lysis buffer (50 mM Tris-HCl pH 7.6, 1 mM EDTA pH 8.0, 165 mM NaCl, 0.5% NP-40), and thereafter, a western blot assay was performed to analyze the association by using the indicated antibodies. Western blot was performed as previously reported. Anti-β-actin and anti-Flag antibodies were purchased from Sigma. Anti-Myc antibody was purchased from Santa Cruz Biotechnology. Antibody against CREPT was produced in the laboratory.
(§2) To address whether PRTC could induce CREPT degradation, we examined the endogenous protein level of CREPT in Panc-1, AsPc-1 and MIA-PaCa-2 cells in the presence of different dosages of PRTC. […] Consistently, treatment with PRTC led to decreases in CREPT protein at different times (Figure 5B, S3A). […] To further visualize the degradation process, we stained the endogenous CREPT protein with an antibody against CREPT in the cells treated with FITC-labeled PRTC.
Figure S3. PRTC induces CREPT degradation. […]
On the technique in general: Immunoblotting shows a protein as a band on a membrane.

In data set [2] the test system is Panc-1 cells. Briefly: Confocal fluorescence imaging of FITC labeled peptides in cells. As to conditions: flow cytometry and confocal imaging of FITC-labeled PRTC; Panc-1, AsPc-1, MIA PaCa-2 cells. It is filed as cell-based. The procedure:
(§3) To examine whether PRTC could permeate into pancreatic cancer cells, we synthesized fluorescein isothiocyanate (FITC) labeled PRTC, PRTC-m, PRTC-v, PRTC-r (PRTC without RRRRK) as well as TAT (a widely used cell penetrating peptide, as a positive control).
(§4) Figure 3 Identification of the permeability of PRTC in Panc-1 cells. (A) Entry of FITC- labeled peptides into Panc-1 cells tested by flow cytometry. FITC-TAT is the positive control. Measurements were performed in triplicate. (B) Quantification of cellular uptake of Panc-1 cells treated with different concentrations of FITC-PRTC. (C) Confocal microscope images of Panc-1 cells treated with 10 μM FITC labeled peptides. Scale bars, 10 μm. (D) Confocal microscope images of Panc-1 cells treated with different dosages of FITC-PRTC. Scale bars, 10 μm.
For orientation: Flow cytometry measures light scatter and fluorescence of single cells or particles in a stream.

The subject of the next data set is Panc-1 xenograft tumors. Kind of data set: Xenograft tumor model. It is filed as in vivo. The note with it: female Balb/c nude mice, 10 mg/kg intraperitoneal every 2 days for 4 weeks, n=5, in comparison with control mice. The procedure: For the xenograft model, 5×10^6 wild-type Panc-1 cells or CREPT knockout Panc-1 cells were subcutaneously injected into 4-week-old female Balb/c nude mice, which were purchased from Beijing Vital River Laboratory Animal Technology Co., Ltd. Each experimental group consisted of five mice. Mice bearing tumors were randomly divided into two groups and administered via intraperitoneal injection control solvent (0.9% saline) or PRTC (dissolved in 0.9% saline, 10 mg/kg) every 2 days for 4 weeks. The body weight of mice were measured every week after treated with 0.9% saline or PRTC. Tumor volume was measured by using the formula V = (a × b^2)/2 (V is volume, a is the length of the tumor, b is the width of the tumor).

Data set [3] deals with T2, endogenous CREPT protein in Panc-1 cells (Homo sapiens, UniProt Q9NQG5).
T2 construct: endogenous protein level of CREPT in Panc-1, AsPc-1 and MIA-PaCa-2 cells; endogenous in cells; host or cells: Panc-1, AsPc-1, MIA PaCa-2
T2 sequence (Q9NQG5 1-326): T1 sequence (Q9NQG5 1-326)
Briefly: Western blot of endogenous CREPT (degradation). It counts as cell-based. The procedure: as §1, §2
Figure 5 PRTC induces the ubiquitination and proteasome- dependent degradation of the endogenous CREPT protein. (A) Immunoblot of CREPT following 24 h incubation with different dosages of PRTC or PRTC-m in Panc-1 cells. (B) Immunoblot of CREPT exposed to 10 μM PRTC or PRTC-m for different times in Panc-1 cells. (C) Western blot analysis of CREPT following 24 h incubation with 10 μM PTRC in Panc-1 cells. MG132 is an inhibitor of proteasome activity. (D) Immunofluorescence visualization of Panc-1 cells after treatment with PRTC for 24 h. Cells were stained with anti-CREPT antibody. Scale bars, 20 μm.

The subject of data set [4] is Panc-1 cells. Kind of data set: Wound healing. The note with it: 10 μM for 24 h, FBS-free DMEM. It counts as cell-based. The procedure: Cells were seeded in 6-well plates. Monolayer cells were scratched after culturing to obtain at least 95% confluence. Cells were washed with PBS and maintained in FBS-free DMEM and then treated with 10 μM PRTC and PRTC-m for 24 h. Migration distance was observed by microscopy and was measured by ImageJ from three individual experiments.

Data set [5] concerns Panc-1 cells. Briefly: Flow cytometry, entry of FITC-labeled peptides into cells. As to conditions: conclusion from flow cytometry of FITC-labeled peptides in pancreatic cancer cells. It is filed as cell-based. The procedure:
as §3, §4

Non-standard residues stand in square brackets, D forms with d. Residues, ends and D or L forms follow the SMILES beside them. Hyp = O=C(O)[C@@H]1C[C@@H](O)CN1; Ahx = NCCCCCC(=O)O

Turning to `CC[C@H](C)[C@H](N)C(=O)N[C@@H](Cc1ccc(O)cc1)C(=O)N1C[C@H](O)C[C@H]1C(=O)N[C@@H](C)C(=O)N[C@@H](CC(C)C)C(=O)NCCCCCC(=O)N[C@@H](CCCCN)C(=O)N[C@@H](CC(=O)O)C(=O)N[C@H](C(=O)N[C@@H](CC(C)C)C(=O)N[C@@H](CO)C(=O)N[C@@H](CCC(=O)O)C(=O)N[C@@H](CCCCN)C(=O)N[C@@H](CCC(=O)O)C(=O)N[C@@H](CCCCN)C(=O)N[C@@H](CCCCN)C(=O)N[C@@H](CC(C)C)C(=O)N[C@@H](CCC(=O)O)C(=O)N[C@@H](CCC(=O)O)C(=O)N[C@@H](Cc1ccc(O)cc1)C(=O)N[C@@H](CCCCN)C(=O)N[C@@H](CCC(N)=O)C(=O)N[C@@H](CCCCN)C(=O)N[C@@H](CC(C)C)C(=O)N[C@@H](C)C(=O)N[C@@H](CCCNC(=N)N)C(=O)N[C@H](C(=O)N[C@@H](CCCNC(=N)N)C(=O)N[C@@H](CCCNC(=N)N)C(=O)N[C@@H](CCCNC(=N)N)C(=O)N[C@@H](CCCNC(=N)N)C(=O)N[C@@H](CCCCN)C(=O)O)C(C)C)C(C)C` [PRTC] (H-IY[Hyp]AL[Ahx]KDVLSEKEKKLEEYKQKLARVRRRRK-OH; N-terminus and C-terminus assumed), the “CREPT protein level upon different dosages” value in data set [1] and in data set [3] (24 h incubation) was “dramatically decreased” each time. Besides, the “time to permeate into pancreatic cancer cells” value in the data set on Panc-1 cells [2] is reported as at most 2 h. Besides, in the data set with Panc-1 xenograft tumors, the “tumor weight and size” value is given as “significantly decreases”. The “CREPT protein level at different times” value in data set [3] (10 μM or 20 μM peptide) is recorded as “decreases”. In the data set with Panc-1 cells [4], the “cell movement (wound healing)” value is recorded as “decreased cell movement”. Also, the cell permeability result with Panc-1 cells [5] was “strong cell permeability”.
